According to the supplement of paper PMC10307832:

Tests used:
Assay in all cases: relative viability (nuclei count vs DMSO), 5 days (fraction); higher = more cells survive
201T = test system: 201T
In short: (§1)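 Lung cancer cell lines were pin-tool dosed in 1536-well plates on the day after seeding, with either a lone drug or a fixed anchor-drug dose plus five library-drug doses (not always all listed) in √10 steps. Nuclei were counted on 4× images after 5 days. Relative viability is the ratio of treated-well to vehicle-well nuclei counts, with each value a median of duplicate plates.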

ABC-1 = test system: ABC-1
In short: as §1

BEN = test system: BEN
In short: as §1

CAL-12T = test system: CAL-12T
In short: as §1

COR-L 105 = test system: COR-L 105
In short: as §1

EKVX = test system: EKVX
In short: as §1

HARA = test system: HARA
In short: as §1

HCC-366 = test system: HCC-366
In short: as §1

LK-2 = test system: LK-2
In short: as §1

LOU-NH91 = test system: LOU-NH91
In short: as §1

NCI-H1437 = test system: NCI-H1437
In short: as §1

NCI-H1650 = test system: NCI-H1650
In short: as §1

NCI-H1666 = test system: NCI-H1666
In short: as §1

NCI-H2009 = test system: NCI-H2009
In short: as §1

NCI-H2170 = test system: NCI-H2170
In short: as §1

NCI-H3122 = test system: NCI-H3122
In short: as §1

NCI-H441 = test system: NCI-H441
In short: as §1

NCI-H460 = test system: NCI-H460
In short: as §1

NCI-H661 = test system: NCI-H661
In short: as §1

NCI-H727 = test system: NCI-H727
In short: as §1

PC-14 = test system: PC-14
In short: as §1

SW 900 = test system: SW 900
In short: as §1

## CCN(CC)CCCCNc1ncc2cc(-c3cc(OC)cc(OC)c3)c(NC(=O)NC(C)(C)C)nc2n1 + O=C(CCCCCCC(=O)Nc1ccccc1)NO [Vorinostat] (partner 1 µM)
201T; first compound 0.01 µM
  relative viability: 1
201T; first compound 0.03162 µM
  relative viability: 1.03
201T; first compound 0.1 µM
  relative viability: 0.973
201T; first compound 0.3162 µM
  relative viability: 0.981
201T; first compound 1 µM
  relative viability: 0.887
ABC-1; first compound 0.03162 µM
  relative viability: 0.99
ABC-1; first compound 0.1 µM
  relative viability: 1.35
ABC-1; first compound 0.3162 µM
  relative viability: 1.01
ABC-1; first compound 1 µM
  relative viability: 1.09
BEN; first compound 0.01 µM
  relative viability: 0.617
BEN; first compound 0.03162 µM
  relative viability: 0.547
BEN; first compound 0.1 µM
  relative viability: 0.579
BEN; first compound 0.3162 µM
  relative viability: 0.544
BEN; first compound 1 µM
  relative viability: 0.546
CAL-12T; first compound 0.01 µM
  relative viability: 0.784
CAL-12T; first compound 0.03162 µM
  relative viability: 0.702
CAL-12T; first compound 0.1 µM
  relative viability: 0.766
CAL-12T; first compound 0.3162 µM
  relative viability: 0.778
CAL-12T; first compound 1 µM
  relative viability: 0.845
COR-L 105; first compound 0.01 µM
  relative viability: 0.771
COR-L 105; first compound 0.03162 µM
  relative viability: 0.774
COR-L 105; first compound 0.1 µM
  relative viability: 0.981
COR-L 105; first compound 0.3162 µM
  relative viability: 0.796
COR-L 105; first compound 1 µM
  relative viability: 0.805
EKVX; first compound 0.01 µM
  relative viability: 0.814
EKVX; first compound 0.03162 µM
  relative viability: 0.734
EKVX; first compound 0.1 µM
  relative viability: 0.731
EKVX; first compound 0.3162 µM
  relative viability: 0.704
EKVX; first compound 1 µM
  relative viability: 0.621
HARA; first compound 0.01 µM
  relative viability: 0.406
HARA; first compound 0.03162 µM
  relative viability: 0.483
HARA; first compound 0.1 µM
  relative viability: 0.528
HARA; first compound 0.3162 µM
  relative viability: 0.51
HARA; first compound 1 µM
  relative viability: 0.365
HCC-366; first compound 0.01 µM
  relative viability: 0.414
HCC-366; first compound 0.03162 µM
  relative viability: 0.369
HCC-366; first compound 0.1 µM
  relative viability: 0.423
HCC-366; first compound 0.3162 µM
  relative viability: 0.383
HCC-366; first compound 1 µM
  relative viability: 0.288
LK-2; first compound 0.01 µM
  relative viability: 0.266
LK-2; first compound 0.03162 µM
  relative viability: 0.213
LK-2; first compound 0.1 µM
  relative viability: 0.2
LK-2; first compound 0.3162 µM
  relative viability: 0.235
LK-2; first compound 1 µM
  relative viability: 0.252
LOU-NH91; first compound 0.01 µM
  relative viability: 0.868
LOU-NH91; first compound 0.03162 µM
  relative viability: 0.99
LOU-NH91; first compound 0.1 µM
  relative viability: 1.04
LOU-NH91; first compound 0.3162 µM
  relative viability: 1.08
LOU-NH91; first compound 1 µM
  relative viability: 0.901
NCI-H1437; first compound 0.01 µM
  relative viability: 0.88
NCI-H1437; first compound 0.03162 µM
  relative viability: 0.821
NCI-H1437; first compound 0.1 µM
  relative viability: 0.827
NCI-H1437; first compound 0.3162 µM
  relative viability: 0.948
NCI-H1437; first compound 1 µM
  relative viability: 0.82
NCI-H1650; first compound 0.01 µM
  relative viability: 0.625
NCI-H1650; first compound 0.03162 µM
  relative viability: 0.616
NCI-H1650; first compound 0.1 µM
  relative viability: 0.531
NCI-H1650; first compound 0.3162 µM
  relative viability: 0.655
NCI-H1650; first compound 1 µM
  relative viability: 0.432
NCI-H1666; first compound 0.01 µM
  relative viability: 1.13
NCI-H1666; first compound 0.03162 µM
  relative viability: 1.01
NCI-H1666; first compound 0.1 µM
  relative viability: 1.04
NCI-H1666; first compound 0.3162 µM
  relative viability: 1.1
NCI-H1666; first compound 1 µM
  relative viability: 1.05
NCI-H2009; first compound 0.01 µM
  relative viability: 0.731
NCI-H2009; first compound 0.03162 µM
  relative viability: 0.749
NCI-H2009; first compound 0.1 µM
  relative viability: 0.78
NCI-H2009; first compound 0.3162 µM
  relative viability: 0.78
NCI-H2009; first compound 1 µM
  relative viability: 0.624
NCI-H2170; first compound 0.01 µM
  relative viability: 0.782
NCI-H2170; first compound 0.03162 µM
  relative viability: 0.92
NCI-H2170; first compound 0.1 µM
  relative viability: 0.983
NCI-H2170; first compound 0.3162 µM
  relative viability: 0.969
NCI-H2170; first compound 1 µM
  relative viability: 0.776
NCI-H3122; first compound 0.01 µM
  relative viability: 0.983
NCI-H3122; first compound 0.03162 µM
  relative viability: 1.06
NCI-H3122; first compound 0.1 µM
  relative viability: 1.09
NCI-H3122; first compound 0.3162 µM
  relative viability: 0.996
NCI-H3122; first compound 1 µM
  relative viability: 1.14
NCI-H441; first compound 0.01 µM
  relative viability: 0.863
NCI-H441; first compound 0.03162 µM
  relative viability: 0.829
NCI-H441; first compound 0.1 µM
  relative viability: 0.811
NCI-H441; first compound 0.3162 µM
  relative viability: 0.776
NCI-H441; first compound 1 µM
  relative viability: 0.826
NCI-H460; first compound 0.01 µM
  relative viability: 0.817
NCI-H460; first compound 0.03162 µM
  relative viability: 0.793
NCI-H460; first compound 0.1 µM
  relative viability: 1.39
NCI-H460; first compound 0.3162 µM
  relative viability: 0.763
NCI-H460; first compound 1 µM
  relative viability: 0.557
NCI-H661; first compound 0.01 µM
  relative viability: 0.781
NCI-H661; first compound 0.03162 µM
  relative viability: 0.757
NCI-H661; first compound 0.1 µM
  relative viability: 0.856
NCI-H661; first compound 0.3162 µM
  relative viability: 0.839
NCI-H661; first compound 1 µM
  relative viability: 0.741
NCI-H727; first compound 0.01 µM
  relative viability: 1.2
NCI-H727; first compound 0.03162 µM
  relative viability: 1.09
NCI-H727; first compound 0.1 µM
  relative viability: 1.47
NCI-H727; first compound 0.3162 µM
  relative viability: 1.23
NCI-H727; first compound 1 µM
  relative viability: 1.23
PC-14; first compound 0.01 µM
  relative viability: 0.708
PC-14; first compound 0.03162 µM
  relative viability: 0.84
PC-14; first compound 0.1 µM
  relative viability: 0.969
PC-14; first compound 0.3162 µM
  relative viability: 0.881
PC-14; first compound 1 µM
  relative viability: 0.622
SW 900; first compound 0.01 µM
  relative viability: 0.551
SW 900; first compound 0.03162 µM
  relative viability: 0.626
SW 900; first compound 0.1 µM
  relative viability: 0.44
SW 900; first compound 0.3162 µM
  relative viability: 0.412
SW 900; first compound 1 µM
  relative viability: 0.254
